Patent US20180161449A1 (OCULIS EHF, priority 2015, published 2018)

Legend:
[1] = type: physicochemical
Description: An excess amount of drug was added to aqueous solutions containing up to 20% (w/v) cyclodextrin. The solutions were sonicated at 40-50° C. for 45-60 minutes in sealed glass vials, and then allowed to cool to room temperature (22-23° C.). Small amount of solid drug was then added to each vial, the vial resealed and allowed to equilibrate under constant agitation and protected from light for 7 days at room temperature. When the solutions had reached equilibrium, they were filtered through a 0.45 μm membrane filter and analyzed by high pressure liquid chromatography. […] The complexation efficiency (CE) was determined from the slope of phase-solubility diagrams (plots of total solubility of the drug versus total CD concentration in mol/l) where S0 is the intrinsic solubility of the drug:
The mobile phase consisted of acetonitrile, methanol and water (60:20:20), the flow rate was 1 ml/min, the column oven temperature was 80° C. and the detection wavelength was 205 nm.

[2] = pure water at room temperature; cited from earlier work

Molecule	CE (complexation efficiency) [1]	Solubility in the presence of 5% (w/v) cyclodextrin [1] [µg/mL]	Solubility in the presence of 15% (w/v) cyclodextrin [1] [µg/mL]	Solubility of the cyclodextrin in pure water [2]
2-Hydroxypropyl-α-cyclodextrin	0.031	84	460	–
2-Hydroxypropyl-γ-cyclodextrin	0.0011	–	–	–
OC[C@H]1O[C@@H]2O[C@H]3[C@H](O)[C@@H](O)[C@@H](O[C@H]4[C@H](O)[C@@H](O)[C@@H](O[C@H]5[C@H](O)[C@@H](O)[C@@H](O[C@H]6[C@H](O)[C@@H](O)[C@@H](O[C@H]7[C@H](O)[C@@H](O)[C@@H](O[C@H]1[C@H](O)[C@H]2O)O[C@@H]7CO)O[C@@H]6CO)O[C@@H]5CO)O[C@@H]4CO)O[C@@H]3CO [α-Cyclodextrin]	0.54	–	4200	–
OC[C@H]1O[C@@H]2O[C@H]3[C@H](O)[C@@H](O)[C@@H](O[C@H]4[C@H](O)[C@@H](O)[C@@H](O[C@H]5[C@H](O)[C@@H](O)[C@@H](O[C@H]6[C@H](O)[C@@H](O)[C@@H](O[C@H]7[C@H](O)[C@@H](O)[C@@H](O[C@H]8[C@H](O)[C@@H](O)[C@@H](O[C@H]1[C@H](O)[C@H]2O)O[C@@H]8CO)O[C@@H]7CO)O[C@@H]6CO)O[C@@H]5CO)O[C@@H]4CO)O[C@@H]3CO [β-Cyclodextrin]	0.030	–	–	2 % (w/v)
OC[C@H]1O[C@@H]2O[C@H]3[C@H](O)[C@@H](O)[C@@H](O[C@H]4[C@H](O)[C@@H](O)[C@@H](O[C@H]5[C@H](O)[C@@H](O)[C@@H](O[C@H]6[C@H](O)[C@@H](O)[C@@H](O[C@H]7[C@H](O)[C@@H](O)[C@@H](O[C@H]8[C@H](O)[C@@H](O)[C@@H](O[C@H]9[C@H](O)[C@@H](O)[C@@H](O[C@H]1[C@H](O)[C@H]2O)O[C@@H]9CO)O[C@@H]8CO)O[C@@H]7CO)O[C@@H]6CO)O[C@@H]5CO)O[C@@H]4CO)O[C@@H]3CO [γ-Cyclodextrin]	0.0049	–	–	–
Randomly methylated β-cyclodextrin	0.053	130	–	–
